Experimental data: patent US9657071B2, “IgE peptide vaccine” (NIPPON ZENYAKU KOGYO CO., LTD., priority 2012, dated 2017)

Columns and labels:
Type in all cases: in vivo
mouse IgE = assay: Reactivity of serum of peptide-immunized rabbit with mouse IgE (ELISA); details: 500 μg peptide + complete adjuvant s.c.
Method: 2 mL of the 250 μg/mL peptide (a total of 500 μg) used in Example 2 was mixed with an equal amount of a complete adjuvant (a total of 4 mL). Each rabbit was immunized with this mixture by the subcutaneous administration (amount of the peptide: 500 μg) at day 0 and weeks 2, 4, 6, and 8. Blood was collected 5 weeks after the week-8 administration (week 13 counted from day 0). Booster immunization was performed at week 14 counted from day 0, and blood was further collected 2 weeks thereafter (week 16 counted from day 0). Antibody titers in the collected blood were measured by ELISA. The serum of a rabbit that received no peptide was used as a control.
ELISA was performed by the following method: each […] recombinant CH3 solution of dog IgE, human IgE, mouse IgE, dog IgG, and cat IgE was immobilized at a concentration of 100 μL/well (100 ng/well) to a plate. The serum collected from the immunized rabbit was used (×200 to ×102400) as a primary antibody. An enzyme-labeled anti-rabbit IgG antibody (Zymed Laboratories Inc.) was used as a secondary antibody.

Der f 2-specific IgE = Der f 2-specific IgE in serum of vaccinated, Der f 2-sensitized dogs; details: dog
Method: (§1) The peptide used was MOUSE CH3-4-17-11 (mouse CH3 region amino acid sequence) (SEQ ID NO: 27). 2 mL (500 μg) of a solution of the peptide (concentration: 250 μg/mL) and 2 mL of a complete adjuvant (DIFCO ADJUVANT COMPLETE FREUND, Becton, Dickinson and Company Japan) were dispensed to microtubes. Liquids (4 mL per animal) emulsified by shaking for 15 minutes in a high-speed shaker were used as IgE peptide vaccines.
(§2) The animals used were 1 male and 7 females of 5- to 7-month-old beagles and were divided into an administration group (n=4; 08-33, 08-42, 08-43, and 08-44) and a non-administration group (n=4; 08-45, 08-46, 08-47, and 08-48).
The peptide was administered at days 0 (test start date), 14, and 28 in the first course and further at days 106 and 117 in the second course. The test substance was subcutaneously administered to the necks of the 4 animals in the administration group. The non-administration group was untreated.
Four weeks after the completion of the peptide administration of the first course (days 56 and 70 into the test), all of the animals were artificially sensitized. A mixed liquid (4.0 mL per animal) of 300 μg of Der f 2 (Lot No. 3, 1465 μg/mL, prepared by a drug research team) and 50 mg of an alum adjuvant (SIGMA® Aluminium hydrate IgE1, 13 mg/mL) was used as a sensitizing solution and administered intraperitoneally for the first shot and subcutaneously to the necks for the second shot.
Four weeks after the completion of the peptide administration of the second course (day 145 into the test), the artificial sensitization was boosted. A 1-mL solution prepared from Der f 2 (Lot No. 3: 0.205 mL of 1465 μg/mL: 300 μg) with saline was subcutaneously administered to the necks of all of the animals.
At days 0, 14, 28, 42, 56, 70, 77, 84, 98, 106, 117, 131, 145, and 152 (4 time points (0, 14, 28, and 42) were excluded for the non-administration group), blood was collected from the jugular vein of each individual using a syringe. After separation of serum, the serum was used to measure peptide-specific IgG concentrations and IgE-specific IgG concentrations in the serum.
Serum obtained at days 70, 77, 106, 117, 131, 145, and 152 were used in the measurement of Der f 2-specific IgE concentrations in the serum, which was consigned to AAC Laboratories Inc.

human IgE = assay: IgE-specific IgG in serum of dogs given IgE peptide vaccine (ELISA, human IgE immobilized); details: dog
Method: as §1, §2
The peptide was administered at days 0 (test start date), 14, and 28 in the first course and further at days 106 and 117 in the second course. The test substance was subcutaneously administered to the necks of the 4 animals in the administration group. The non-administration group was untreated. […]
Each antigenic protein (MOUSE CH3-4-17-11 for peptide-specific IgG assay, and human IgE for IgE-specific IgG assay) was prepared at 1 μg/mL in an immobilization buffer (0.05 M carbonate buffer, pH 9.6), then added at a concentration of 100 μL/well to an ELISA plate, and left overnight at 4° C. […] Then, the measurement was performed using a plate reader (Bio-Rad Laboratories, Inc.; model 680) (dual: measurement: 450 nm, control: 570 nm). […]

QEKKTSVSASQWYTKHHNNATTSIT (listed as Mus musculus) [MOUSE CH3-4-17-11]
response of immobilized mouse IgE to peptide-administered rabbit serum (mouse IgE): responded
Der f 2-specific IgE in serum, administration group versus non-administration group (Der f 2-specific IgE; all of the time points): no significant difference
Der f 2-specific IgE concentrations in serum, administration group (Der f 2-specific IgE; day 70 (2 weeks after the first sensitization)): 1528.8 ± 1823.6 ng/mL
average of Der f 2-specific IgE concentrations in the serum of the administration group (Der f 2-specific IgE; day 77, 3 animals, excluding 08-43): 1352.3 ng/mL
Der f 2-specific IgE concentrations in serum, administration group (Der f 2-specific IgE; day 106 (peak)): 3091.8 ± 1542.6 ng/mL
Der f 2-specific IgE concentrations in serum, administration group (Der f 2-specific IgE; day 152 (7 days after the boosting)): 3972.5 ± 1216.5 ng/mL
production of IgE after subsequent sensitization (Der f 2-specific IgE; summary of FIG. 6): inhibited the production of IgE
IgE-specific IgG in serum, administration group versus non-administration group (human IgE; day 77, p<0.05): significantly higher
level of IgG antibody against IgE (human IgE; summary of FIG. 6): increased
